Data set [1] has as its system Gad1 H3K4me2 level in rat primary culture neurons. Nature of the data set: Gad1 H3K4 methylation induction activity in rat primary culture neurons (ChIP-qPCR). It is filed as cell-based. As to conditions: Neuron, 72 h, control without compound = 100%. (Real-time PCR tracks product formation cycle by cycle.)
Another data set addresses MAO-B enzyme (Homo sapiens (Human), UniProt P27338). Nature of the data set: Measurement of MAO-B inhibitory activity (MAO-Glo Assay).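 Also: luminescence read-out, compound preincubated 10 min with enzyme then reacted 60 min at room temperature, inhibition relative to enzyme reaction without compound, blank lacking enzyme and compound.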 As to conditions: read-out: MAO-B IC50 value.
For a further data set, the target named is human LSD1(172-833) (Homo sapiens (Human), UniProt O60341). Nature of the data set: Measurement of LSD1 inhibitory activity (time-resolved fluorescence, biotin-histone H3 mono methylated K4 peptide). The data set is classed as biochemical. In short, it runs like this:
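Remaining signal detected by TR-FRET after 60 min with europium anti-histone H3 antibody and streptavidin-XL665 in potassium fluoride/0.1% BSA.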

Data set [2] deals with white blood cell number, red blood cell number, platelet number. Nature of the data set: Evaluation of blood cell number in mouse. The data set is classed as in vivo. The note with it: oral, Day 2 after administration. In short, it runs like this:
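Male ICR mice dosed orally at 1, 10, 50 or 100 mg/kg (suspension in 0.5% methylcellulose/0.02% citric acid/water); whole blood collected on Day 2. White cell, red cell and platelet counts per unit volume by automated haematology analyser, expressed as % of mean of untreated control group.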

For another data set, the target named is MAO-A enzyme (Homo sapiens (Human), UniProt P21397). Nature of the data set: Measurement of MAO-A inhibitory activity (MAO-Glo Assay). The data set is classed as biochemical.
A short description of data set [3]: Evaluation of hippocampal distribution in mouse. The data set is classed as in vivo. As to conditions: male ICR mice, 10 mg/kg oral; for concentration at 1 h: 1 hr after administration; for concentration at 0.5 h: 0.5 hr after administration. An outline of the steps:
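Male ICR mice dosed orally at 10 mg/kg as suspension in 0.5% methylcellulose/0.02% citric acid/water. Plasma and hippocampus sampled together at 0.5, 1 or 1.5 h; LC/MS/MS concentrations gave hippocampus/plasma ratio.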

The mark [4] stands for this setting: Rattus norvegicus, read-out: Gad1 H3K4me2 induction activity (%), compound 1 μM, 3 days, rat primary culture neurons.
Setting [5] is: Rattus norvegicus, read-out: Gad1 H3K4me2 induction activity (%), compound 10 μM, 3 days, rat primary culture neurons.
Setting [6] is: hippocampus, read-out: hippocampus concentration (mean).
Setting [7] is: plasma, read-out: plasma concentration (mean).
Where [8] appears, read: compound 1 μM, 3 days, rat primary culture neurons, read-out: Gad1 H3K4me2 induction activity (%).
The mark [9] stands for this setting: compound 10 μM, 3 days, rat primary culture neurons, read-out: Gad1 H3K4me2 induction activity (%).

Each structure is given as a SMILES string. Where a name gives a salt, the structure may show the parent alone. Read-outs that look alike come from different tables or passages of the source. Marks after values point to notes of the source that are not given here. Where only a bound is given, the exact number is not on record here.

Chain of MAO-B enzyme (P27338 whole entry): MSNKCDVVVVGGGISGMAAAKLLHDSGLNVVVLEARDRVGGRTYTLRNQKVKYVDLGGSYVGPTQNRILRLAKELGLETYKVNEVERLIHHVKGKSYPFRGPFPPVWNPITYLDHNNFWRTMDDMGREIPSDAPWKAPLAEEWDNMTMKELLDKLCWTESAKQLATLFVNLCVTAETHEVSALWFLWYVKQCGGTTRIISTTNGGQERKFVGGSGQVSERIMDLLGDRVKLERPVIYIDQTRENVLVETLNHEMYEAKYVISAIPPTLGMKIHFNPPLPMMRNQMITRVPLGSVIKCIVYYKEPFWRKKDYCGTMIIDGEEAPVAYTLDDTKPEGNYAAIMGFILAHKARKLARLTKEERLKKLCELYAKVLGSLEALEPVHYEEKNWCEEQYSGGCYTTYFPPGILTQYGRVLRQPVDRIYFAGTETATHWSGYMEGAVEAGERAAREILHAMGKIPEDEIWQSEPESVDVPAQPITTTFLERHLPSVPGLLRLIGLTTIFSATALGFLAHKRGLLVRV
Chain of MAO-A enzyme (P21397 whole entry): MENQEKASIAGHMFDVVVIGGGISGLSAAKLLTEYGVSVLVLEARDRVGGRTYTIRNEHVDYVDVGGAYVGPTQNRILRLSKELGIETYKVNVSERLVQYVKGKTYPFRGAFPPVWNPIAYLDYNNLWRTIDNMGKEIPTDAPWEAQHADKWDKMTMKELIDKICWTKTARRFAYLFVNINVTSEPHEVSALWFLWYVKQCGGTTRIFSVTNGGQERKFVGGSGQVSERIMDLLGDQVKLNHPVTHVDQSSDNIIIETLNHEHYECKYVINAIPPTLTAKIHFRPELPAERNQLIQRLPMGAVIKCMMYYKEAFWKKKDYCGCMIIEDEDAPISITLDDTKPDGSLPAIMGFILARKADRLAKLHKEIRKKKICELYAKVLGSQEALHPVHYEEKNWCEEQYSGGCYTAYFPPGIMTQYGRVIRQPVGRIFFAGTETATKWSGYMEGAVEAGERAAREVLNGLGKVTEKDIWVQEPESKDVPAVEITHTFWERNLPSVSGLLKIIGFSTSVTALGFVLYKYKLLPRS
Experimental for MAO-A enzyme: The MAO-A inhibitory activity evaluation described below followed the protocol of MAO-Glo (registered trademark) Assay of Promega KK.
A test compound dissolved in 4% DMSO was added by 12.5 μL to 25 μL reaction solution (100 mM HEPES (pH 7.5), 5% glycerol) containing 400 ng of MAO-A enzyme (Sigma-Aldrich Co. LLC.), and the mixture was reacted at room temperature for 10 min. […] After reaction at room temperature for 60 min, Luciferine detection reagent (Promega KK) (50 μL) was added to terminate the reaction. After reaction at room temperature for min with stirring, the luminescence was measured by Envision (PerkinElmer). The MAO-A inhibitory rate (%) of the test compound was calculated by the following formula. inhibitory rate(%)=(1−(test compound count−blank)÷(control−blank))×100
The count of the MAO-A enzyme reaction mixture under compound non-addition conditions is indicated as control, and the count under compound non-addition and MAO-A enzyme non-addition conditions is indicated as blank.

As to `O=C(Nc1ccc(-c2ncccn2)cc1)c1cccc([C@@H]2C[C@H]2NCC2CC2)c1` (relative stereo) [Example 58, 3-(trans-2-((cyclopropylmethyl)amino)cyclopropyl)-N-(4-(pyrimidin-2-yl)phenyl)benzamide dihydrochloride], in data set [1] (setting [4]), the activity at 1 µM was 126%. Moreover, in data set [1] (setting [5]), the activity at 10 µM was 116%. Further, the IC50 on MAO-B enzyme was > 10 µM; on human LSD1(172-833), < 100 nM; against MAO-A enzyme, > 10 µM. The “platelet number, percentage of compound administration group compared to control group, mean” value (from here on “platelet number, percentage”) in data set [2] (10 mg/kg) was 99.4%; in data set [2] (50 mg/kg), 102.9^a %. The “red blood cell number, percentage of compound administration group compared to control group, mean” value (“red blood cell number, percentage” below) is reported as 99.7% in data set [2] (10 mg/kg) and 101.3^a % in data set [2] (50 mg/kg). Besides, the “white blood cell number, percentage of compound administration group compared to control group, mean” value (“white blood cell number, percentage” for short) was 94.2% in data set [2] (10 mg/kg) and 85.8^a % in data set [2] (50 mg/kg).
Consider `O=C(Nc1cnn(CC2CC2)c1)c1cccc([C@@H]2C[C@H]2NCC2CC2)c1` (relative stereo) [Example 77, 3-(trans-2-((cyclopropylmethyl)amino)cyclopropyl)-N-(1-(cyclopropylmethyl)-1H-pyrazol-4-yl)benzamide dihydrochloride], for which the activity at 1 µM in data set [1] (setting [4]) amounted to 165%. For the same compound, the activity at 10 µM in data set [1] (setting [5]) is 163%. Besides, the results for the IC50 on MAO-B enzyme, against human LSD1(172-833) and on MAO-A enzyme were > 10 µM, < 100 nM and > 10 µM, respectively. Besides, the figures for the “platelet number, percentage” value in data set [2] (10 mg/kg) and in data set [2] (100 mg/kg) were 99.6% and 96.6%, respectively. For the same compound, the “red blood cell number, percentage” value stood at 98.2% in data set [2] (10 mg/kg) and 100.9% in data set [2] (100 mg/kg). In addition, the “white blood cell number, percentage” value in data set [2] (10 mg/kg) is 147.9%; in data set [2] (100 mg/kg), 98.2%.
In the case of `Cc1cc(NC(=O)c2cccc([C@@H]3C[C@H]3NCC3CC3)c2)on1` (relative stereo) [Example 106, 3-(trans-2-((cyclopropylmethyl)amino)cyclopropyl)-N-(3-methyl-1,2-oxazol-5-yl)benzamide hydrochloride], the concentration at 1 h in data set [3] (setting [6]) stood at 107 ng/g; in data set [3] (setting [7]) it was 33 ng/mL. The activity at 1 µM in data set [1] (setting [8]) turned out to be 139%. In data set [1] (setting [9]), the activity at 10 µM came out at 132%. Moreover, the IC50 was > 10 µM at MAO-B enzyme, < 100 nM against human LSD1(172-833) and > 10 µM against MAO-A enzyme. The “platelet number, percentage” value worked out at 94.6% in data set [2] (10 mg/kg) and 97.2% in data set [2] (100 mg/kg). Further, the entries for the “red blood cell number, percentage” value in data set [2] (10 mg/kg) and in data set [2] (100 mg/kg) were 99.4% and 101.9%, respectively. For the same compound, the “white blood cell number, percentage” value in data set [2] (10 mg/kg) is 114.8%; in data set [2] (100 mg/kg) it was 89.0%.
For `Cc1nnc(NC(=O)c2ccc(F)c([C@@H]3C[C@H]3NCC3CC3)c2)s1` (relative stereo) [Example 109, 3-(trans-2-((cyclopropylmethyl)amino)cyclopropyl)-4-fluoro-N-(5-methyl-1,3,4-thiadiazol-2-yl)benzamide dihydrochloride], the concentration at 0.5 h was 1610 ng/g in data set [3] (setting [6]) and 1250 ng/mL in data set [3] (setting [7]). For the same compound, the activity at 1 µM in data set [1] (setting [8]) amounted to 117%. In addition, the activity at 10 µM in data set [1] (setting [9]) stood at 96%. In addition, the IC50 on MAO-B enzyme was > 10 µM; on human LSD1(172-833), < 100 nM; on MAO-A enzyme it was > 10 µM. Moreover, the “platelet number, percentage” value in data set [2] (10 mg/kg) came out at 94.3%; in data set [2] (100 mg/kg), 97.8%. In addition, the “red blood cell number, percentage” value in data set [2] (10 mg/kg) was determined as 96.3%; in data set [2] (100 mg/kg), 98.2%. Besides, the entries for the “white blood cell number, percentage” value in data set [2] (10 mg/kg) and in data set [2] (100 mg/kg) were 88.3% and 107.4%, respectively.
On to `O=C(NC1CCOCC1)c1cccc([C@@H]2C[C@H]2NC2CCC2)c1` (relative stereo) [Example 179, 3-(trans-2-(cyclobutylamino)cyclopropyl)-N-(tetrahydro-2H-pyran-4-yl)benzamide hydrochloride], for which the figures for the concentration at 0.5 h in data set [3] (setting [6]) and in data set [3] (setting [7]) were 321 ng/g and 421 ng/mL, respectively. In addition, the activity at 1 µM in data set [1] (setting [4]) amounted to 175%. For the same compound, in data set [1] (setting [5]), the activity at 10 µM was found to be 123%. The “platelet number, percentage” value in data set [2] (10 mg/kg) was found to be 94.8%; in data set [2] (100 mg/kg) it was 92.5%. In addition, the “red blood cell number, percentage” value in data set [2] (10 mg/kg) was 102.5%; in data set [2] (100 mg/kg), 100.4%. The “white blood cell number, percentage” value in data set [2] (10 mg/kg) was determined as 94.2%; in data set [2] (100 mg/kg) it was 121.2%.
Turning to `Cn1cc(NC(=O)c2cc([C@@H]3C[C@H]3NC3CCC(F)(F)CC3)ccc2F)cn1` (relative stereo) [Example 186, 5-(trans-2-((4,4-difluorocyclohexyl)amino)cyclopropyl)-2-fluoro-N-(1-methyl-1H-pyrazol-4-yl)benzamide hydrochloride], the concentration at 0.5 h was 3120 ng/g in data set [3] (setting [6]) and 1320 ng/mL in data set [3] (setting [7]). Besides, the activity at 1 µM in data set [1] (setting [4]) worked out at 239%. Moreover, the activity at 10 µM in data set [1] (setting [5]) was found to be 191%. The figures for the “platelet number, percentage” value in data set [2] (10 mg/kg) and in data set [2] (100 mg/kg) were 93.1% and 88.2%, respectively. Moreover, the “red blood cell number, percentage” value in data set [2] (10 mg/kg) worked out at 101.5%; in data set [2] (100 mg/kg) it was 99.2%. Further, the figures for the “white blood cell number, percentage” value in data set [2] (10 mg/kg) and in data set [2] (100 mg/kg) were 129.3% and 111.2%, respectively.
In the case of `Cc1ncc(NC(=O)c2cccc([C@@H]3C[C@H]3NC3CCOCC3)c2)s1` (relative stereo) [Example 212, N-(2-methyl-1,3-thiazol-5-yl)-3-(trans-2-(tetrahydro-2H-pyran-4-ylamino)cyclopropyl)benzamide dihydrochloride], in data set [1] (setting [8]), the activity at 1 µM was found to be 201%. Besides, the activity at 10 µM in data set [1] (setting [9]) was 289%. In addition, the IC50 at MAO-B enzyme was > 10 µM; against human LSD1(172-833) it was < 100 nM; at MAO-A enzyme, > 10 µM.

The IC50 is the concentration that gives 50% inhibition.

Values taken from patent US9751885B2, “Cyclopropanamine compound and use thereof” (Takeda Pharmaceutical Company Limited, priority 2012, dated 2017).
